Test results: patent US8415469B2, “Compounds and methods for kinase modulation, and indications therefor” (Plexxikon Inc., priority 2005, dated 2013)

Columns and labels:
Format in all cases: biochemical
c-Raf-1 = target: T1, c-Raf-1 (Homo sapiens, UniProt P04049); assay: AlphaScreen kinase assay, c-Raf-1; conditions: read-out: IC50, activity toward kinase c-Raf-1
T1 construct: purchased Upstate Biotechnology

Jnk3 = target: T2, Jnk3 (Homo sapiens, UniProt P53779); assay: AlphaScreen kinase assay, Jnk3; conditions: read-out: IC50, activity toward kinase Jnk3
T2 construct: purchased Upstate Biotechnology

Flt1 = target: T3, Flt1 (Homo sapiens, UniProt P17948); assay: AlphaScreen kinase assay, Flt1; conditions: read-out: IC50, activity toward kinase Flt1
T3 construct: P1826.pETN6 BI-PTP FLT1 M799-D1165-X WT; His6 (N); made in house; host or cells: E. coli (PTP1B co-expressed)
T3 sequence (P17948 with tags, fused parts or gaps): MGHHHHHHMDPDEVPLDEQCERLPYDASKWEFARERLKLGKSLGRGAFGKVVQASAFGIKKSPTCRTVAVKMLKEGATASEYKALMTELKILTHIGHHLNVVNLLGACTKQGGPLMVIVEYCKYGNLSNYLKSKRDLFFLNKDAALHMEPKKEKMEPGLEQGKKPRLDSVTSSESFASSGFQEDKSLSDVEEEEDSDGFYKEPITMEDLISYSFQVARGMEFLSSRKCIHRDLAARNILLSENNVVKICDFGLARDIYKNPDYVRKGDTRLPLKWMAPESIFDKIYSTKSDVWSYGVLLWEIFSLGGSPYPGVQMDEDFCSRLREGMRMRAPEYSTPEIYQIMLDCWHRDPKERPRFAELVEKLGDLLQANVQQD

Jnk1 = target: T4, Jnk1 (Homo sapiens, UniProt P45983); assay: AlphaScreen kinase assay, Jnk1; conditions: read-out: IC50, activity toward kinase Jnk1
T4 construct: purchased Upstate Biotechnology

Fak = target: T5, Fak (Homo sapiens, UniProt Q05397); assay: AlphaScreen kinase assay, Fak; conditions: read-out: IC50, activity toward kinase Fak
T5 construct: P1358.pFastBacHtb FAK S411-Q686-X; His6 with pFastBacHTb leader (TEV site) (N); made in house; host or cells: Sf9 (baculovirus)

Fms = target: T6, Fms (Homo sapiens, UniProt P07333); assay: AlphaScreen kinase assay, Fms; conditions: read-out: IC50, activity toward kinase Fms
T6 construct: purchased Upstate Biotechnology

Kit = target: T7, Kit (Homo sapiens, UniProt P10721); assay: AlphaScreen kinase assay, Kit; conditions: read-out: IC50, activity toward kinase Kit
T7 construct: P1332.N6 BI PTP KIT M552-K948-X COD; His6 (N); made in house; host or cells: E. coli (PTP1B co-expressed)

B-Raf = target: T8, B-Raf (Homo sapiens, UniProt P15056); assay: AlphaScreen kinase assay, B-Raf; conditions: read-out: IC50, activity toward kinase B-Raf
T8 construct: purchased Upstate Biotechnology

B-Raf V600E = target: T9, B-Raf V600E (Homo sapiens, UniProt P15056, V600E); assay: AlphaScreen kinase assay, B-Raf V600E; conditions: read-out: IC50, activity toward kinase B-Raf V600E
T9 construct: P4254. pFastBacBD-CDC37 BRAF D437-K722-X, V600E; His6 with pFastBac HT leader (TEV site) (N); made in house; host or cells: Sf9 (baculovirus; chaperone CDC37 co-expressed)

FGFR1 = target: T10, FGFR1 (Homo sapiens, UniProt P11362, C488A/C584S); assay: AlphaScreen kinase assay, FGFR1; conditions: read-out: IC50, activity toward kinase FGFR
T10 construct: P1351.pET N6 BI-PTP FGFR A458-E765-X C488A, C584S; made in house; host or cells: E. coli (PTP1B co-expressed)

MAP4K4 = MAP4K4 (Homo sapiens, UniProt O95819); assay: AlphaScreen kinase assay, MAP4K4; conditions: read-out: IC50, activity toward kinase MAP4K4
Src = target: T11, Src (Homo sapiens, UniProt P12931); assay: AlphaScreen kinase assay, Src; conditions: read-out: IC50, activity toward kinase Src
T11 construct: P1144. pET-N6 BI-PTP SRC V86-L536-X; made in house

Stk6 = target: T12, Stk6 (Homo sapiens, UniProt O14965); assay: Z'-Lyte FRET kinase assay (Invitrogen), Stk6; conditions: read-out: IC50, activity toward kinase Stk6
T12 construct: purchased Invitrogen (Carlsbad, Calif.), screening service
T12 sequence (O14965 1-403): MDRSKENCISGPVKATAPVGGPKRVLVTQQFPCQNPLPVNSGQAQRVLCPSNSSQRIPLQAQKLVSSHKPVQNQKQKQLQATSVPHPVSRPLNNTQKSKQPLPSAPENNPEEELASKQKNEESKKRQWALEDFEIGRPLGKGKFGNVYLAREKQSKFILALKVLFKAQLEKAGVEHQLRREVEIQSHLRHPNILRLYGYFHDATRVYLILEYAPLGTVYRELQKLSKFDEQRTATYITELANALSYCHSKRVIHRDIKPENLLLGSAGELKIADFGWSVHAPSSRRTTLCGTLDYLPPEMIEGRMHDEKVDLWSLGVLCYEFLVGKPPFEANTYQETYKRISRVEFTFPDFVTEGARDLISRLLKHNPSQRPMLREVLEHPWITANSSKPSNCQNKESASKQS

Kdr = target: T13, Kdr (Homo sapiens, UniProt P35968); assay: Z'-Lyte FRET kinase assay (Invitrogen), Kdr; conditions: read-out: IC50, activity toward kinase Kdr
T13 construct: purchased Invitrogen (assay run by Invitrogen)

Measured: IC50

T10 sequence (P11362 458-765 C488A/C584S): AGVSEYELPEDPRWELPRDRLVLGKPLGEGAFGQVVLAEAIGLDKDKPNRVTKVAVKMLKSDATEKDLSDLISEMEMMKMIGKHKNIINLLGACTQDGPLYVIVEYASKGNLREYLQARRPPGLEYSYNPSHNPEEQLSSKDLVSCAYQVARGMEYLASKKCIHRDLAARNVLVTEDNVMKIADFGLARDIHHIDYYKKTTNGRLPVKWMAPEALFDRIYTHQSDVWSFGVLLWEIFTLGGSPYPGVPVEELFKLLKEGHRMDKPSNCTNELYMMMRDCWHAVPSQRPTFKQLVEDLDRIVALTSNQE
T5 sequence (Q05397 411-686): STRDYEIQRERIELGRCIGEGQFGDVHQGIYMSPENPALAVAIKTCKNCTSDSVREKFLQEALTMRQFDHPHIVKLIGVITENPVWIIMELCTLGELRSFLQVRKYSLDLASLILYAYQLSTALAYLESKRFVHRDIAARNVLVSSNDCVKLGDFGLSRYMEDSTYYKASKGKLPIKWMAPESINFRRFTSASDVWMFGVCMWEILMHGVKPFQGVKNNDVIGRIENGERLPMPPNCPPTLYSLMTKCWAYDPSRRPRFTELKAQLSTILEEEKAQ
T6 sequence (P07333 20-972): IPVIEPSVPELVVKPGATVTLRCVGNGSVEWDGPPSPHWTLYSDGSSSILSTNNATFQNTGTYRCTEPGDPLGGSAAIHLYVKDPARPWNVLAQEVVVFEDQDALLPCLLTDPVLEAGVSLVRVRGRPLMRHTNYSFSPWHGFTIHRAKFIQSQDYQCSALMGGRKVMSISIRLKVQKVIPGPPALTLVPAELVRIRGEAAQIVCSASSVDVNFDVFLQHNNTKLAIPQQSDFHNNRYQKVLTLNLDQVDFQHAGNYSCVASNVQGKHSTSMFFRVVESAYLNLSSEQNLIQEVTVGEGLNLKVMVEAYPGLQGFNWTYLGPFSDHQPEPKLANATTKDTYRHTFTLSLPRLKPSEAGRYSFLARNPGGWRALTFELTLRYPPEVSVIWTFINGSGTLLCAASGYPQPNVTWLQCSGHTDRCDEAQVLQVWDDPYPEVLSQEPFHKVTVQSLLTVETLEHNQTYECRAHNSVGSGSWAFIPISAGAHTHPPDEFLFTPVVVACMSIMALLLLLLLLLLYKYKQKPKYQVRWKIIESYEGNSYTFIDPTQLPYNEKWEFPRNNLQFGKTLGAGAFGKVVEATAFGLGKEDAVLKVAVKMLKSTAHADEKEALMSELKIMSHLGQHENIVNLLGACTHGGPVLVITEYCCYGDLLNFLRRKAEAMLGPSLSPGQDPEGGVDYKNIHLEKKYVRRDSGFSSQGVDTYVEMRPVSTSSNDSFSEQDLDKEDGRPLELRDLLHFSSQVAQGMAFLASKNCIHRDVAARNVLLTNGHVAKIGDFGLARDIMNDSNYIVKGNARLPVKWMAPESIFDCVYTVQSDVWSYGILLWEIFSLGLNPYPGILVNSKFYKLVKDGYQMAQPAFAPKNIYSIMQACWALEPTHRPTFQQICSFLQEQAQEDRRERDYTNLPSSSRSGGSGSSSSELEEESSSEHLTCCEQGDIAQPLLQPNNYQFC
T11 sequence (P12931 with tags, fused parts or gaps): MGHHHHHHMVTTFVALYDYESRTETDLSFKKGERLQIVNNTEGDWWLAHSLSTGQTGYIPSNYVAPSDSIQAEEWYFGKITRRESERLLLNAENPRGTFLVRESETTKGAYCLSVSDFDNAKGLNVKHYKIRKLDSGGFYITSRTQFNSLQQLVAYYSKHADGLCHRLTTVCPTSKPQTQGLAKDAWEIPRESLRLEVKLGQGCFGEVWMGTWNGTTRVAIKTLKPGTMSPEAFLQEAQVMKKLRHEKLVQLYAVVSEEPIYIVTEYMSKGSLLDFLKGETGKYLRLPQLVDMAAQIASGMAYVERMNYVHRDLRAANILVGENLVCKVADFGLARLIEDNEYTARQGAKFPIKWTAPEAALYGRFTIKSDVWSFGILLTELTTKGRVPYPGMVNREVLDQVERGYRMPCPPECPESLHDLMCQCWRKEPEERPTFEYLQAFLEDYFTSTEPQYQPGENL
T8 sequence (P15056 whole entry): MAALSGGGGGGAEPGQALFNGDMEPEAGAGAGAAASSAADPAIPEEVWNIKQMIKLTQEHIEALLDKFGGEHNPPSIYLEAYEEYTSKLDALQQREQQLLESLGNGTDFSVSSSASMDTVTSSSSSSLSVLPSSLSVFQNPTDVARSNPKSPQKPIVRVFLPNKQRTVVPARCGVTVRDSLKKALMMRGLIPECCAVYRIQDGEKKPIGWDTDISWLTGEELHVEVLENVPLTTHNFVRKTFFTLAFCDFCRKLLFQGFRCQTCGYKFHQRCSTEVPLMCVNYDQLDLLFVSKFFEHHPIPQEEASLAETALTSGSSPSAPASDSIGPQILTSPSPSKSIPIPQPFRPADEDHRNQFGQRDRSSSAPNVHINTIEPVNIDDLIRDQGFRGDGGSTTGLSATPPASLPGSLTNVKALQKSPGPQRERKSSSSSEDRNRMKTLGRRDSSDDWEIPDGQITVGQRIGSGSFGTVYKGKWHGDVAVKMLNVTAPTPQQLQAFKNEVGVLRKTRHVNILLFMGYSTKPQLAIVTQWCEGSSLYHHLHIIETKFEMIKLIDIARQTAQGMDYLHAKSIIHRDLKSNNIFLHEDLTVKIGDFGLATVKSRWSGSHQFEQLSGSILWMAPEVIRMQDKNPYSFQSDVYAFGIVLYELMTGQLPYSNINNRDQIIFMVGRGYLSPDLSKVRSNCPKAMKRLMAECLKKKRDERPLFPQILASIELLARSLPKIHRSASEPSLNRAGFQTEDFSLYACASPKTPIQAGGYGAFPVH
MAP4K4, sequence (O95819 whole entry): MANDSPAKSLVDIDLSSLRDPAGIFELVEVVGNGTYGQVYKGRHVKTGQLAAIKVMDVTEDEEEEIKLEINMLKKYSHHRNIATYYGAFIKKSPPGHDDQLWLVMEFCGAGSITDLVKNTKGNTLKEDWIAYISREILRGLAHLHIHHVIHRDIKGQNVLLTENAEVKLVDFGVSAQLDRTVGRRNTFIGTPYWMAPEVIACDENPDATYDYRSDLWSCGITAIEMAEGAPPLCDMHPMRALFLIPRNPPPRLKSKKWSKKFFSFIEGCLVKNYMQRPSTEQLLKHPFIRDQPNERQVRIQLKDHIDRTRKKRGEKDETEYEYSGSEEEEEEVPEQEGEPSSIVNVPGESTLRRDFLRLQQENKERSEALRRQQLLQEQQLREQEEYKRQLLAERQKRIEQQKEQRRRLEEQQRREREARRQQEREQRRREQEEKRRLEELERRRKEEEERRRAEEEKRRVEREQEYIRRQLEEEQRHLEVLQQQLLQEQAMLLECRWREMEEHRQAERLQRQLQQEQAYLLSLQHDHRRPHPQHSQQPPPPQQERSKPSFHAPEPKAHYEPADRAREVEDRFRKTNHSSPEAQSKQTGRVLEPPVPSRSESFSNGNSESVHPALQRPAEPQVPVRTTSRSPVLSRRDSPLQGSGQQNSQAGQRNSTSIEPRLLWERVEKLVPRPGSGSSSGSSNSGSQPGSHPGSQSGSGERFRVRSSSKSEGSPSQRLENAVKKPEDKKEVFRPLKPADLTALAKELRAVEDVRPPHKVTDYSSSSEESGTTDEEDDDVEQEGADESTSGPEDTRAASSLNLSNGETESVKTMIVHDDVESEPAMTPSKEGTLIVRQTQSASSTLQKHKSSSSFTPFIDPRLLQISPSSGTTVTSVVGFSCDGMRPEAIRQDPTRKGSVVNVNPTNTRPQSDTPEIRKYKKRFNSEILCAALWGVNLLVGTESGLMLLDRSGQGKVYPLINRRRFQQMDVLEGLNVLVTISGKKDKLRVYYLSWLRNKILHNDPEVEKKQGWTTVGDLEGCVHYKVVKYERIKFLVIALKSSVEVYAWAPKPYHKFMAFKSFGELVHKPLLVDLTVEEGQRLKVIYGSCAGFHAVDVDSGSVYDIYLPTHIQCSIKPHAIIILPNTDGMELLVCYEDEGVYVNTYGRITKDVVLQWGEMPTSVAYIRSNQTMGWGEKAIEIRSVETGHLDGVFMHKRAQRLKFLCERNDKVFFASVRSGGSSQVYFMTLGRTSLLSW
T7 sequence (P10721 with tags, fused parts or gaps): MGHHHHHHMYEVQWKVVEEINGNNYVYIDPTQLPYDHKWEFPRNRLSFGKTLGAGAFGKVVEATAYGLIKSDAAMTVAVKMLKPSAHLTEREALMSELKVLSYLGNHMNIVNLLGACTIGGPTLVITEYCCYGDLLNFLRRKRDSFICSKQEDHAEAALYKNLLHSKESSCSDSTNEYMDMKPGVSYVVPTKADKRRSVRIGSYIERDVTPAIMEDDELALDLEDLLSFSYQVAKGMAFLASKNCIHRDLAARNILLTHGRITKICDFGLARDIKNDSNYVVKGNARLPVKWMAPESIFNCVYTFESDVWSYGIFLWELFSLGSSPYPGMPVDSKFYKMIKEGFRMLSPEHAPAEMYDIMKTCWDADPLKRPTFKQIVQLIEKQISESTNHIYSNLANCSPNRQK
T2 sequence (P53779 whole entry): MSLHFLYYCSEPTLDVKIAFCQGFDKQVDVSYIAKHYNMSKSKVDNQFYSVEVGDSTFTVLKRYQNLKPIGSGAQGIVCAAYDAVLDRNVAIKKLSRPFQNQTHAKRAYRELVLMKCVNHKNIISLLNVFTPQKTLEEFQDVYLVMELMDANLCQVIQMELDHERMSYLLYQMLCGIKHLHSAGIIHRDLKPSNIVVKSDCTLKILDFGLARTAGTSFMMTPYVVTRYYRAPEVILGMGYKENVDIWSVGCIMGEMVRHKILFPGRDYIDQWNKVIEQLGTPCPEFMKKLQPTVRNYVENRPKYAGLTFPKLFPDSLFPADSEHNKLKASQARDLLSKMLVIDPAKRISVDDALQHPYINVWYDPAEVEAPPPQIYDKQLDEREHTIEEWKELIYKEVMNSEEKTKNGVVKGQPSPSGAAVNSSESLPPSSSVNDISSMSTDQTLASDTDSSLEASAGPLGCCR

CCC(C)NC(=O)Nc1ccc(F)c(C(=O)c2c[nH]c3ncc(-c4cccnc4)cc23)c1F (stereo not drawn) [Compound P-1289, 1-sec-Butyl-3-[2,4-difluoro-3-(5-pyridin-3-yl-1H-pyrrolo[2,3-b]pyridine-3-carbonyl)-phenyl]-urea]
not listed: Stk6 | Kdr
≤ 10 µM: all other assays above

COc1cccc(Cc2c[nH]c3ncc(-c4ccsc4)cc23)n1 [Compound P-0300]
≤ 10 µM: Jnk3 | Stk6 | Kit | MAP4K4

c1cnc2[nH]cc(Sc3ccncc3)c2c1 [Compound P-0131]
≤ 10 µM: Kdr | Stk6 | MAP4K4

c1cncc(-c2cnc3[nH]ccc3c2)c1 [Compound P-0176]
≤ 10 µM: Jnk3 | Kdr | Stk6 | Kit | MAP4K4

O=C(c1c(F)cccc1F)c1c[nH]c2ncccc12 [Compound P-1685]
≤ 10 µM: Fak | Fms | Kit | FGFR1 | MAP4K4

CCCC(=O)Nc1ccc(F)c(C(=O)c2c[nH]c3ncc(-c4cccnc4)cc23)c1F [Compound P-1279]
not listed: Src | Stk6 | Kdr
≤ 10 µM: all other assays above

CCCS(=O)(=O)Nc1cccc(C(=O)c2c[nH]c3ncccc23)c1F [Compound P-1056, propane-1-sulfonic acid [2-fluoro-3-(1H-1-pyrrolo[2,3-b]pyridine-3-carbonyl)-phenyl]-amide]
≤ 10 µM: c-Raf-1 | B-Raf | B-Raf V600E | MAP4K4

CCCS(=O)(=O)Nc1ccc(Cl)c(C(=O)c2c[nH]c3ncccc23)c1F [Compound P-0904, Propane-1-sulfonic acid [4-chloro-2-fluoro-3-(1H-pyrrolo[2,3-b]pyridine-3-carbonyl)-phenyl]-amide]
≤ 10 µM: c-Raf-1 | B-Raf | B-Raf V600E | FGFR1 | MAP4K4

COc1cc(OC)cc(C(=O)c2c[nH]c3ncc(-c4cccnc4)cc23)c1 [Compound P-1411, (3,5-Dimethoxy-phenyl)-(5-pyridin-3-yl-1H-pyrrolo[2,3-b]pyridin-3-yl)-methanone]
≤ 10 µM: Flt1 | Fak | Fms | Kit | B-Raf V600E | FGFR1 | MAP4K4

c1ccc(Sc2c[nH]c3ncccc23)nc1 [Compound P-0214]
≤ 10 µM: Flt1 | Stk6 | MAP4K4

NC(=O)c1cccc(-c2cnc3[nH]cc(C(=O)c4ccccc4OCc4ccccc4)c3c2)c1 [Compound P-1383]
≤ 10 µM: Flt1 | Fak | Kit | B-Raf | B-Raf V600E | FGFR1 | MAP4K4 | Src

Cc1[nH]c2ncccc2c1-c1cccc(F)c1 [Compound P-0986]
≤ 10 µM: Fak | MAP4K4

Clc1ncccc1Cc1c[nH]c2ncccc12 [Compound P-0317]
≤ 10 µM: Fms | Stk6 | MAP4K4

COc1cc(Nc2ccnc3[nH]ccc23)cc(OC)c1OC [Compound P-0909]
≤ 10 µM: c-Raf-1 | B-Raf | MAP4K4

O=C(c1c(F)ccc(NS(=O)(=O)c2ccc(Cl)cc2)c1F)c1c[nH]c2ncccc12 [Compound P-0937, 4-Chloro-N-[2,4-difluoro-3-(1H-pyrrolo[2,3-b]pyridine-3-carbonyl)-phenyl]-benzenesulfonamide]
≤ 10 µM: c-Raf-1 | Kit | B-Raf | B-Raf V600E | FGFR1 | MAP4K4

O=C(O)/C=C/c1cccc(-c2cnc3[nH]cc(C(=O)c4cccc(OC(F)(F)F)c4)c3c2)c1 [Compound P-1417, (E)-3-{3-[3-(3-Trifluoromethoxy-benzoyl)-1H-pyrrolo[2,3-b]pyridin-5-yl]-phenyl}-acrylic acid]
≤ 10 µM: Flt1 | Kit | B-Raf V600E | MAP4K4 | Src

CCCS(=O)(=O)Nc1ccc(F)c(C(=O)c2c[nH]c3ncc(N4CCOCC4)cc23)c1F [Compound P-0853, Propane-1-sulfonic acid [2,4-difluoro-3-(5-morpholin-4-yl-1H-pyrrolo[2,3-b]pyridine-3-carbonyl)-phenyl]-amide]
not listed: Jnk3 | Flt1 | Fak | Stk6 | Kdr
≤ 10 µM: all other assays above

COc1cc(Cc2c[nH]c3ncccc23)cc(OC)c1 [Compound P-0391]
≤ 10 µM: Kdr | Fak | Fms | Kit | FGFR1 | MAP4K4

O=C(c1c(F)ccc(NS(=O)(=O)c2ccc(C(F)(F)F)cc2)c1F)c1c[nH]c2ncccc12 [Compound P-0931, N-[2,4-Difluoro-3-(1H-pyrrolo[2,3-b]pyridine-3-carbonyl)-phenyl]-4-trifluoromethyl-benzenesulfonamide]
≤ 10 µM: c-Raf-1 | Fms | Kit | B-Raf | B-Raf V600E | MAP4K4

COc1ccc(-c2cnc3[nH]cc(C#Cc4cccc(C(=O)O)c4)c3c2)cc1OC [Compound P-0174]
≤ 10 µM: Kdr | Stk6 | B-Raf V600E | MAP4K4
